Reference: publication PMC6150336, “Hepatotoxicity Induced by Sophora flavescens and Hepatic Accumulation of Kurarinone, a Major Hepatotoxic Constituent of Sophora flavescens in Rats” (Molecules : A Journal of Synthetic Chemistry and Natural …, 2017)
Where two headings read alike, the source gives them in different places. Each block holds one compound with its values, some of them ahead of it.

Tests used:
[1] = ESF tissue distribution study in rats; assay type: in vivo, rat; conditions: for AUC(0-t): male, rat
Method: Male rats were divided into five groups corresponding to five experimental time points (n = 3 in each group). Rats under urethane anesthesia were sacrificed by bleeding from the abdominal aorta and hepatic portal vein at 15 min, 30 min, 1 h, 2 h, and 4 h time points (3 rats/time point) after a p.o. dose of ESF (2.5 g/kg). The liver, kidneys, heart, skeletal muscles, small intestine, and bile were harvested and homogenized in threefold volume of ice-cold saline. Kurarinone levels in vivo in the plasma and liver were examined at the time points when blood biochemistry parameters were measured. Kurarinone and kurarinone glucuronides levels were detected by LC-MS/MS [24, 25].

HL-7702 cells = experiment: Effect of kurarinone on triglyceride levels in HL-7702 cells; assay type: cell-based, human; conditions: HL 7702 cells exposed for 24 h
Method: HL-7702 cells were cultured in RPMI-1640 medium (Gibco, Grand Island, NY, USA) containing 10% fetal bovine serum (FBS) (Gibco, USA) in a humidified atmosphere of 5% CO2 at 37 °C. The cells were seeded in 24-well plates, cultured for 24 h, and incubated with kurarinone (1, 8, 16, 24, 32, 44, and 60 μM) dissolved in RPMI-1640 medium without FBS for 24 h. Triglyceride levels were determined using a triglyceride assay kit (Nanjing Jiancheng Bioengineering Institute) according to the manufacturer’s instructions.

[2] = method and reference not given; cited from earlier work
[3] = AUC0–4h after oral administration of ESF (2.5 g/kg) in rats

- AUC0–t Biliary Secretion [1, 3]: 93.3 nmol·h/mL
- AUC0–t Body Plasma [1, 3]: 15.3 nmol·h/mL
- AUC0–t Heart [1, 3]: 0.1 nmol·h/mL
- AUC0–t Intestine [1, 3]: 2.2 nmol·h/mL
- AUC0–t Kidney [1, 3]: 0.7 nmol·h/mL
- AUC0–t Liver [1, 3]: 1.4 nmol·h/mL
- AUC0–t Protal Plasma [1, 3]: 25.0 nmol·h/mL
- AUC0–t Skeletal Muscle [1, 3]: 0.4 nmol·h/mL
- Form of kurarinone in plasma and bile ([1]; ESF-treated rats): dominant form
Compound: kurarinone glucuronide

- Triglyceride accumulation (HL-7702 cells; 1-60 μM): accumulated dose-dependently
- Exposure of liver compared with plasma ([1]; ESF (2.5 g/kg) orally in rats): much higher
- Form of kurarinone in visceral organs ([1]; ESF-treated rats): predominant
- AUC(0-t) ([1]; bile, AUC0–4h after oral administration of ESF (2.5 g/kg) in rats, read-out: AUC0–t Biliary Secretion): 0.8 µM·h
- AUC(0-t) ([1]; heart, AUC0–4h after oral administration of ESF (2.5 g/kg) in rats, read-out: AUC0–t Heart): 4.7 µM·h
- AUC(0-t) ([1]; hepatic portal vein plasma, AUC0–4h after oral administration of ESF (2.5 g/kg) in rats, read-out: AUC0–t Protal Plasma): 4.4 µM·h
- AUC(0-t) ([1]; kidney, AUC0–4h after oral administration of ESF (2.5 g/kg) in rats, read-out: AUC0–t Kidney): 5.4 µM·h
- AUC(0-t) ([1]; liver, AUC0–4h after oral administration of ESF (2.5 g/kg) in rats, read-out: AUC0–t Liver): 45.5 µM·h
- AUC(0-t) ([1]; skeletal muscle, AUC0–4h after oral administration of ESF (2.5 g/kg) in rats, read-out: AUC0–t Skeletal Muscle): 6.9 µM·h
- AUC(0-t) ([1]; small intestine, AUC0–4h after oral administration of ESF (2.5 g/kg) in rats, read-out: AUC0–t Intestine): 21.4 µM·h
- AUC(0-t) ([1]; systemic (body) plasma, AUC0–4h after oral administration of ESF (2.5 g/kg) in rats, read-out: AUC0–t Body Plasma): 2.4 µM·h
Compound: C=C(C)[C@H](CC=C(C)C)Cc1c(O)cc(OC)c2c1O[C@H](c1ccc(O)cc1O)CC2=O [Kurarinone, kurarinone]
- EC50 (HL-7702 cells; Homo sapiens, L02, read-out: EC50, increase of triglyceride): 31.2 ± 2.47 µM
- log p [2]: 5.6
